Measured values: patent US10638756B2, “Molecules having pesticidal utility, and intermediates, compositions, and processes, related thereto” (Dow AgroSciences LLC, priority 2017, dated 2020)

Columns and labels:
[1] = test system: Beet Armyworm (Spodoptera exigua); test: Bioassay on Beet Armyworm (BAW), 128-well diet tray assay; assay type: in vivo; conditions: Spodoptera exigua, 168 h; 50 μg/cm^2 on artificial diet, second instar larvae, five to seven days; read-out: BAW % Control (or Mortality) rating
[2] = test system: Cabbage Looper (Trichoplusia ni); test: Bioassay on Cabbage Looper (CL), 128-well diet tray assay; assay type: in vivo; conditions: 168 h, 50 μg/cm^2 on artificial diet, second instar larvae, five to seven days, read-out: CL % Control (or Mortality) rating
Summary of the method: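 Each of eight wells receives artificial diet treated at 50 μg/cm^2 with the test molecule, then one to five second-instar larvae. Incubation runs five to seven days at 25° C with a 14:10 light-dark cycle under vented covers. Mortality is scored per well as a percentage and averaged.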

Structure (SMILES) | mortality at 50 µg/cm2 [1] [%] | mortality at 50 µg/cm2 [2] [%]
O=C(NNc1c(Cl)cccc1Cl)c1ccc(/C(F)=C/C(c2cc(Cl)c(Cl)c(Cl)c2)C(F)(F)F)cc1C(F)(F)F (centres unmarked) [F129, (Z)—N′-(2,6-dichlorophenyl)-4-(1,4,4,4-tetrafluoro-3-(3,4,5-trichlorophenyl)but-1-en-1-yl)-2-(trifluoromethyl)benzohydrazide] | 50 to 100 | 50 to 100
O=C(NNc1c(Cl)c(Cl)nc(Cl)c1Cl)c1ccc(/C(F)=C/C(c2cc(Cl)c(Cl)c(Cl)c2)C(F)(F)F)cc1C(F)(F)F (centres unmarked) [F131, (Z)—N′-(Perchloropyridin-4-yl)-4-(1,4,4,4-tetrafluoro-3-(3,4,5-trichlorophenyl)but-1-en-1-yl)-2-(trifluoromethyl)benzohydrazide] | 0 | 0
O=C(NNc1ncccc1[N+](=O)[O-])c1ccc(/C(F)=C/C(c2cc(Cl)c(Cl)c(Cl)c2)C(F)(F)F)cc1C(F)(F)F (centres unmarked) [F132, (Z)—N′-(3-Nitropyridin-2-yl)-4-(1,4,4,4-tetrafluoro-3-(3,4,5-trichlorophenyl)but-1-en-1-yl)-2-(trifluoromethyl)benzohydrazide] | 50 to 100 | 50 to 100
O=C(NNC1CCS(=O)(=O)C1)c1ccc(/C(F)=C/C(c2cc(Cl)c(Cl)c(Cl)c2)C(F)(F)F)cc1C(F)(F)F (centres unmarked) [F135, (Z)—N′-(1,1-Dioxidotetrahydrothiophen-3-yl)-4-(1,4,4,4-tetrafluoro-3-(3,4,5-trichlorophenyl)but-1-en-1-yl)-2-(trifluoromethyl)benzohydrazide] | 50 to 100 | 50 to 100
O=C(NNc1ccc(Cl)nc1)c1ccc(/C(F)=C/C(c2cc(Cl)c(Cl)c(Cl)c2)C(F)(F)F)cc1C(F)(F)F (centres unmarked) [F136, (Z)—N′-(6-Chloropyridin-3-yl)-4-(1,4,4,4-tetrafluoro-3-(3,4,5-trichlorophenyl)but-1-en-1-yl)-2-(trifluoromethyl)benzohydrazide] | 50 to 100 | 50 to 100
O=C(NNC1CCCCC1)c1ccc(/C(F)=C/C(c2cc(Cl)c(Cl)c(Cl)c2)C(F)(F)F)cc1C(F)(F)F (centres unmarked) [F137, (Z)—N′-Cyclohexyl-4-(1,4,4,4-tetrafluoro-3-(3,4,5-trichlorophenyl)but-1-en-1-yl)-2-(trifluoromethyl)benzohydrazide] | 50 to 100 | 50 to 100
O=C(NNC1CCC1)c1ccc(/C(F)=C/C(c2cc(Cl)c(Cl)c(Cl)c2)C(F)(F)F)cc1C(F)(F)F (centres unmarked) [F138, (Z)—N′-Cyclobutyl-4-(1,4,4,4-tetrafluoro-3-(3,4,5-trichlorophenyl)but-1-en-1-yl)-2-(trifluoromethyl)benzohydrazide] | 50 to 100 | 50 to 100
CC(C)(C)CNNC(=O)c1ccc(/C(F)=C/C(c2cc(Cl)c(Cl)c(Cl)c2)C(F)(F)F)cc1C(F)(F)F (centres unmarked) [F140, (Z)—N′-Neopentyl-4-(1,4,4,4-tetrafluoro-3-(3,4,5-trichlorophenyl)but-1-en-1-yl)-2-(trifluoromethyl)benzohydrazide] | 50 to 100 | 50 to 100
O=C(NNc1cccc(C(F)(F)F)n1)c1ccc(/C(F)=C/C(c2cc(Cl)c(Cl)c(Cl)c2)C(F)(F)F)cc1C(F)(F)F (centres unmarked) [F141, (Z)-4-(1,4,4,4-Tetrafluoro-3-(3,4,5-trichlorophenyl)but-1-en-1-yl)-2-(trifluoromethyl)-N′-(6-(trifluoromethyl)pyridin-2-yl)benzohydrazide] | 50 to 100 | 50 to 100
N#CCCNNC(=O)c1ccc(/C(F)=C/C(c2cc(Cl)c(Cl)c(Cl)c2)C(F)(F)F)cc1C(F)(F)F (centres unmarked) [F142, (Z)—N′-(2-Cyanoethyl)-4-(1,4,4,4-tetrafluoro-3-(3,4,5-trichlorophenyl)but-1-en-1-yl)-2-(trifluoromethyl)benzohydrazide] | 50 to 100 | 50 to 100
CN(C)CCNNC(=O)c1ccc(/C(F)=C/C(c2cc(Cl)c(Cl)c(Cl)c2)C(F)(F)F)cc1C(F)(F)F (centres unmarked) [F143, (Z)—N′-(2-(Dimethylamino)ethyl)-4-(1,4,4,4-tetrafluoro-3-(3,4,5-trichlorophenyl)but-1-en-1-yl)-2-(trifluoromethyl)benzohydrazide] | 50 to 100 | 0 to 50
CN(NC(=O)c1ccc(/C(F)=C/C(c2cc(Cl)c(Cl)c(Cl)c2)C(F)(F)F)cc1C(F)(F)F)C1CCCC1 (centres unmarked) [F144, (Z)—N′-Cyclopentyl-N′-methyl-4-(1,4,4,4-tetrafluoro-3-(3,4,5-trichlorophenyl)but-1-en-1-yl)-2-(trifluoromethyl)benzohydrazide] | 50 to 100 | 50 to 100
CC(C)CCNNC(=O)c1ccc(/C(F)=C/C(c2cc(Cl)c(Cl)c(Cl)c2)C(F)(F)F)cc1C(F)(F)F (centres unmarked) [F145, (Z)—N′-Isopentyl-4-(1,4,4,4-tetrafluoro-3-(3,4,5-trichlorophenyl)but-1-en-1-yl)-2-(trifluoromethyl)benzohydrazide] | 50 to 100 | 50 to 100
O=C(NNC1CCC(F)(F)CC1)c1ccc(/C(F)=C/C(c2cc(Cl)c(Cl)c(Cl)c2)C(F)(F)F)cc1C(F)(F)F (centres unmarked) [F146, (Z)—N′-(4,4-Difluorocyclohexyl)-4-(1,4,4,4-tetrafluoro-3-(3,4,5-trichlorophenyl)but-1-en-1-yl)-2-(trifluoromethyl)benzohydrazide] | 50 to 100 | 50 to 100
NN(CC(=O)NCC(F)(F)F)C(=O)c1ccc(/C(F)=C/C(c2cc(Cl)c(Cl)c(Cl)c2)C(F)(F)F)cc1C(F)(F)F (centres unmarked) [F149, (Z)-2-(1-(4-(1,4,4,4-tetrafluoro-3-(3,4,5-trichlorophenyl)but-1-en-1-yl)-2-(trifluoromethyl)benzoyl)hydrazinyl)-N-(2,2,2-trifluoroethyl)acetamide] | 50 to 100 | 50 to 100
C#CCN(NC(=O)c1ccc(/C(F)=C/C(c2cc(Cl)c(Cl)c(Cl)c2)C(F)(F)F)cc1C(F)(F)F)c1ncccn1 (centres unmarked) [F150, (Z)—N′-(Prop-2-yn-1-yl)-N′-(pyrimidin-2-yl)-4-(1,4,4,4-tetrafluoro-3-(3,4,5-trichlorophenyl)but-1-en-1-yl)-2-(trifluoromethyl)benzohydrazide] | 50 to 100 | 50 to 100
CN(NC(=O)c1ccc(/C(F)=C/C(c2cc(Cl)cc(Cl)c2)C(F)(F)F)cc1C(F)(F)F)c1ncccn1 (centres unmarked) [F151, (Z)-4-(3-(3,5-Dichlorophenyl)-1,4,4,4-tetrafluorobut-1-en-1-yl)-N′-methyl-N′-(pyrimidin-2-yl)-2-(trifluoromethyl)benzohydrazide] | 50 to 100 | 50 to 100
CN(CCCC(F)(F)F)NC(=O)c1ccc(/C(F)=C/C(c2cc(Cl)c(Cl)c(Cl)c2)C(F)(F)F)cc1C(F)(F)F (centres unmarked) [F155, (Z)—N′-Methyl-4-(1,4,4,4-tetrafluoro-3-(3,4,5-trichlorophenyl)but-1-en-1-yl)-N′-(4,4,4-trifluorobutyl)-2-(trifluoromethyl)benzohydrazide] | 50 to 100 | 50 to 100
Nc1ccccc1NNC(=O)c1ccc(/C(F)=C/C(c2cc(Cl)c(Cl)c(Cl)c2)C(F)(F)F)cc1C(F)(F)F (centres unmarked) [F156, (Z)—N′-(2-aminophenyl)-4-(1,4,4,4-tetrafluoro-3-(3,4,5-trichlorophenyl)but-1-en-1-yl)-2-(trifluoromethyl)benzohydrazide] | 50 to 100 | 50 to 100
CC(C)CNNC(=O)c1ccc(/C(F)=C/C(c2cc(Cl)c(Cl)c(Cl)c2)C(F)(F)F)cc1C(F)(F)F (centres unmarked) [F157, (Z)—N′-Isobutyl-4-(1,4,4,4-tetrafluoro-3-(3,4,5-trichlorophenyl)but-1-en-1-yl)-2-(trifluoromethyl)benzohydrazide] | 50 to 100 | 50 to 100
CN(CC1CC1)NC(=O)c1ccc(/C(F)=C/C(c2cc(Cl)c(Cl)c(Cl)c2)C(F)(F)F)cc1C(F)(F)F (centres unmarked) [F159, (Z)—N′-(Cyclopropylmethyl)-N′-methyl-4-(1,4,4,4-tetrafluoro-3-(3,4,5-trichlorophenyl)but-1-en-1-yl)-2-(trifluoromethyl)benzohydrazide] | 50 to 100 | 50 to 100
CC(C)CCN(C)NC(=O)c1ccc(/C(F)=C/C(c2cc(Cl)c(Cl)c(Cl)c2)C(F)(F)F)cc1C(F)(F)F (centres unmarked) [F160, (Z)—N′-Isopentyl-N′-methyl-4-(1,4,4,4-tetrafluoro-3-(3,4,5-trichlorophenyl)but-1-en-1-yl)-2-(trifluoromethyl)benzohydrazide] | 50 to 100 | 50 to 100
O=C(NNCC1CC1)c1ccc(/C(F)=C/C(c2cc(Cl)c(Cl)c(Cl)c2)C(F)(F)F)cc1C(F)(F)F (centres unmarked) [F162, (Z)—N′-(Cyclopropylmethyl)-4-(1,4,4,4-tetrafluoro-3-(3,4,5-trichlorophenyl)but-1-en-1-yl)-2-(trifluoromethyl)benzohydrazide] | 50 to 100 | 50 to 100
O=C(NNc1ncccn1)c1ccc(/C(F)=C/C(c2cc(Br)c(F)c(Br)c2)C(F)(F)F)cc1C(F)(F)F (centres unmarked) [F163, (Z)-4-(3-(3,5-Dibromo-4-fluorophenyl)-1,4,4,4-tetrafluorobut-1-en-1-yl)-N′-(pyrimidin-2-yl)-2-(trifluoromethyl)benzohydrazide] | 50 to 100 | 50 to 100
CN(NC(=O)c1ccc(/C(F)=C/C(c2cc(Cl)c(Cl)c(Cl)c2)C(F)(F)F)cc1C(F)(F)F)c1ncc([N+](=O)[O-])cn1 (centres unmarked) [F164, (Z)—N′-Methyl-N′-(5-nitropyrimidin-2-yl)-4-(1,4,4,4-tetrafluoro-3-(3,4,5-trichlorophenyl)but-1-en-1-yl)-2-(trifluoromethyl)benzohydrazide] | 50 to 100 | 50 to 100
